From ChEMBL document CHEMBL5360570, “Discovery of pyrazolo[3,4-b]pyridine derivatives as novel and potent Mps1 inhibitors for the treatment of cancer” (Eur J Med Chem, 2023)

What was measured:
[1] = molecular target: NUAK family SNF1-like kinase 1 (Homo sapiens) (UniProt O60285); assay: Inhibition of ARK5 (unknown origin) assessed as residual activity at 1 uM relative to control
[2] = molecular target: Calcium/calmodulin-dependent protein kinase kinase 2 (Homo sapiens) (UniProt Q96RR4); assay: Inhibition of CAMKK2 (unknown origin) assessed as residual activity at 1 uM relative to control
Sequence of Calcium/calmodulin-dependent protein kinase kinase 2 (Homo sapiens) (Q96RR4 2-588 limits assumed): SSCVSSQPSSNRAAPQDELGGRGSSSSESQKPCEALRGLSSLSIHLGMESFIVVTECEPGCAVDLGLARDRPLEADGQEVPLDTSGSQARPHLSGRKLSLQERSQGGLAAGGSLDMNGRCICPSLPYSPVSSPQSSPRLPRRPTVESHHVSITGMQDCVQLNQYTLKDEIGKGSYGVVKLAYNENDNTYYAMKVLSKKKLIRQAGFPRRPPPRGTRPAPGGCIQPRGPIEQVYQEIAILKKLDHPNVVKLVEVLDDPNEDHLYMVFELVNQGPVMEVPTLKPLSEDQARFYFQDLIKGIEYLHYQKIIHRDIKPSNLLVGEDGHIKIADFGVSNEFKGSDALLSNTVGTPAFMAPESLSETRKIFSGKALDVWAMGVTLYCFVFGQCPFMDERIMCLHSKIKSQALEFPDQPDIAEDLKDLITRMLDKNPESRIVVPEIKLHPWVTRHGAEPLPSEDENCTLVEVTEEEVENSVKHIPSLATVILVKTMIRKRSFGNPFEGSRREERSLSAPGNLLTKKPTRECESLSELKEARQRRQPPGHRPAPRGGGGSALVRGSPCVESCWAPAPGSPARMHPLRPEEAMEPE

[3] = molecular target: Focal adhesion kinase 1 (Homo sapiens) (UniProt Q05397); assay: Inhibition of PTK2 (unknown origin) assessed as residual activity at 1 uM relative to control
Sequence of Focal adhesion kinase 1 (Homo sapiens) (Q05397 2-1052 limits assumed): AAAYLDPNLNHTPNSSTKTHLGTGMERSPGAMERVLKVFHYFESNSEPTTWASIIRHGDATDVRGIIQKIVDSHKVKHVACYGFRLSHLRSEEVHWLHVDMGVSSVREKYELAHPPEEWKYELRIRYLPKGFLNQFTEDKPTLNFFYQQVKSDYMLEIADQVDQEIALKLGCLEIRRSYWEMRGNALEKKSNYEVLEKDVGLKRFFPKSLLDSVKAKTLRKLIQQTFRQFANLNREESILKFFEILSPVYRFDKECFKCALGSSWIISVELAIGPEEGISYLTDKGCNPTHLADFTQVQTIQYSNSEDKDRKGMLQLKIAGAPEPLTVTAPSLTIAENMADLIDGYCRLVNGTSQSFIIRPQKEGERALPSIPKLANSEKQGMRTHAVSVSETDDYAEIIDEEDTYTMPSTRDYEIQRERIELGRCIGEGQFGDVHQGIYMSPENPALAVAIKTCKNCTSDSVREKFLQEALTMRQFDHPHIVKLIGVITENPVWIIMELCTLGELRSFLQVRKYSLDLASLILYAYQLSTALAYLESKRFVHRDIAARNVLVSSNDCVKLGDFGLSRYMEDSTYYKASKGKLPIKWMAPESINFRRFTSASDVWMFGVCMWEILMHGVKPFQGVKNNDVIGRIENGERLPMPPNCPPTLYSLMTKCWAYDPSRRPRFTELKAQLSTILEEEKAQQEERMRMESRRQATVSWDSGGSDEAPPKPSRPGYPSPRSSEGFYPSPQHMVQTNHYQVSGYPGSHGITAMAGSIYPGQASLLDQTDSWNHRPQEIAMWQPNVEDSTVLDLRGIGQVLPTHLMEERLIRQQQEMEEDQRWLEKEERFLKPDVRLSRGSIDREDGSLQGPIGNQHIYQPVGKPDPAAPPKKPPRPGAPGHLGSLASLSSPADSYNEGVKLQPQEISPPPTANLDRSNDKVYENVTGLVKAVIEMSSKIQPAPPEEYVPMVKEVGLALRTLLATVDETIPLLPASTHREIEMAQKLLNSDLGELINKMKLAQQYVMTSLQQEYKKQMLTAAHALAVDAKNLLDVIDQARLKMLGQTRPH

[4] = molecular target: Receptor-type tyrosine-protein kinase FLT3 (Homo sapiens) (UniProt P36888); assay: Inhibition of FLT3 (unknown origin) assessed as residual activity at 1 uM relative to control
Sequence of Receptor-type tyrosine-protein kinase FLT3 (Homo sapiens) (P36888 whole entry): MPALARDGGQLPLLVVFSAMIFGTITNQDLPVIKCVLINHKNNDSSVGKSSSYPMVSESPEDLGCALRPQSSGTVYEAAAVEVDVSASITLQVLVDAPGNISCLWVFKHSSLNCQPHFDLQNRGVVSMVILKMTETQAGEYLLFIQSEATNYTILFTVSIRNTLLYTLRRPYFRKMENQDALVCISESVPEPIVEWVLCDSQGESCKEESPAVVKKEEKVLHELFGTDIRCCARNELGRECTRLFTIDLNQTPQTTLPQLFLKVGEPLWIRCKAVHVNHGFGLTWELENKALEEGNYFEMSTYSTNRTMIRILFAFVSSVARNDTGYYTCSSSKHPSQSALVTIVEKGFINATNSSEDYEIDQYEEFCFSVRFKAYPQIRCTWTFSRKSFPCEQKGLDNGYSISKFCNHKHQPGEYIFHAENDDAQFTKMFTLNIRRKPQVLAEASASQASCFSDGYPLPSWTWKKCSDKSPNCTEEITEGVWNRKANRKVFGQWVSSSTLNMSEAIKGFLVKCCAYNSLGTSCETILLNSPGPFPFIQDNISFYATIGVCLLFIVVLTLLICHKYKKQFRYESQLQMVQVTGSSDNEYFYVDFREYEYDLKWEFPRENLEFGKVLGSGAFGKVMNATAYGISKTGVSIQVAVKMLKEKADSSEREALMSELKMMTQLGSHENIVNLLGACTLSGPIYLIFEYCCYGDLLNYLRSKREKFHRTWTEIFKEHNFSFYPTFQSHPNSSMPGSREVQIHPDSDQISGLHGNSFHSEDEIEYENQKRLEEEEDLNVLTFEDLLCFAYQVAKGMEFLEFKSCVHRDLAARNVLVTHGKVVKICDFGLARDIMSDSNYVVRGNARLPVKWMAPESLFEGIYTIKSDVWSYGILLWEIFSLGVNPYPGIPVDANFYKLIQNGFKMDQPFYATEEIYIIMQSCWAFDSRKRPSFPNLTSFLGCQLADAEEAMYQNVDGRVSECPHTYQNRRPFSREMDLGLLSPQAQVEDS

[5] = molecular target: Tyrosine-protein kinase JAK3 (Homo sapiens) (UniProt P52333); assay: Inhibition of JAK3 (unknown origin) assessed as residual activity at 1 uM relative to control
[6] = molecular target: Tyrosine-protein kinase FRK (Homo sapiens) (UniProt P42685); assay: Inhibition of PTK5 (unknown origin) assessed as residual activity at 1 uM relative to control
[7] = molecular target: LIM domain kinase 1 (Homo sapiens) (UniProt P53667); assay: Inhibition of LIMK1 (unknown origin) assessed as residual activity at 1 uM relative to control
Sequence of LIM domain kinase 1 (Homo sapiens) (P53667 whole entry, looked up, the tested form may be a part): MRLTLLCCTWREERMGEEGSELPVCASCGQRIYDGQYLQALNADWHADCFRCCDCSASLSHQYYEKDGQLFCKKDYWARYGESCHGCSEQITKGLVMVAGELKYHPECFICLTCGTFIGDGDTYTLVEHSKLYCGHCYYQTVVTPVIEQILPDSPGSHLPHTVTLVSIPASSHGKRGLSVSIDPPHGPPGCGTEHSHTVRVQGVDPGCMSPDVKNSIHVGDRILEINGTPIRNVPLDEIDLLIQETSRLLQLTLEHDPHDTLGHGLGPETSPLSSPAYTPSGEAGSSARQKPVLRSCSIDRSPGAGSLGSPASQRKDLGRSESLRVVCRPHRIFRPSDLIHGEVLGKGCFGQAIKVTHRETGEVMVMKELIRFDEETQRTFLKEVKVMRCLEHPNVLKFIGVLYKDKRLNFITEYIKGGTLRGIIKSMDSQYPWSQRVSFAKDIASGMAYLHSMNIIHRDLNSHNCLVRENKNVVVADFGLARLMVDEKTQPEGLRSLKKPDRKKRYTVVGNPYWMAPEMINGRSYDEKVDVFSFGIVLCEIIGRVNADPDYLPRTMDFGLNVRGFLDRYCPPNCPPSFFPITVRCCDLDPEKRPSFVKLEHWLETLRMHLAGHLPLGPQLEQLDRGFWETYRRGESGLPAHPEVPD

[8] = molecular target: MAP/microtubule affinity-regulating kinase 4 (Homo sapiens) (UniProt Q96L34); assay: Inhibition of MARK4 (unknown origin) assessed as residual activity at 1 uM relative to control
[9] = molecular target: Mitogen-activated protein kinase kinase kinase 9 (Homo sapiens) (UniProt P80192); assay: Inhibition of MLK1 (unknown origin) assessed as residual activity at 1 uM relative to control
Sequence of Mitogen-activated protein kinase kinase kinase 9 (Homo sapiens) (P80192 whole entry, looked up): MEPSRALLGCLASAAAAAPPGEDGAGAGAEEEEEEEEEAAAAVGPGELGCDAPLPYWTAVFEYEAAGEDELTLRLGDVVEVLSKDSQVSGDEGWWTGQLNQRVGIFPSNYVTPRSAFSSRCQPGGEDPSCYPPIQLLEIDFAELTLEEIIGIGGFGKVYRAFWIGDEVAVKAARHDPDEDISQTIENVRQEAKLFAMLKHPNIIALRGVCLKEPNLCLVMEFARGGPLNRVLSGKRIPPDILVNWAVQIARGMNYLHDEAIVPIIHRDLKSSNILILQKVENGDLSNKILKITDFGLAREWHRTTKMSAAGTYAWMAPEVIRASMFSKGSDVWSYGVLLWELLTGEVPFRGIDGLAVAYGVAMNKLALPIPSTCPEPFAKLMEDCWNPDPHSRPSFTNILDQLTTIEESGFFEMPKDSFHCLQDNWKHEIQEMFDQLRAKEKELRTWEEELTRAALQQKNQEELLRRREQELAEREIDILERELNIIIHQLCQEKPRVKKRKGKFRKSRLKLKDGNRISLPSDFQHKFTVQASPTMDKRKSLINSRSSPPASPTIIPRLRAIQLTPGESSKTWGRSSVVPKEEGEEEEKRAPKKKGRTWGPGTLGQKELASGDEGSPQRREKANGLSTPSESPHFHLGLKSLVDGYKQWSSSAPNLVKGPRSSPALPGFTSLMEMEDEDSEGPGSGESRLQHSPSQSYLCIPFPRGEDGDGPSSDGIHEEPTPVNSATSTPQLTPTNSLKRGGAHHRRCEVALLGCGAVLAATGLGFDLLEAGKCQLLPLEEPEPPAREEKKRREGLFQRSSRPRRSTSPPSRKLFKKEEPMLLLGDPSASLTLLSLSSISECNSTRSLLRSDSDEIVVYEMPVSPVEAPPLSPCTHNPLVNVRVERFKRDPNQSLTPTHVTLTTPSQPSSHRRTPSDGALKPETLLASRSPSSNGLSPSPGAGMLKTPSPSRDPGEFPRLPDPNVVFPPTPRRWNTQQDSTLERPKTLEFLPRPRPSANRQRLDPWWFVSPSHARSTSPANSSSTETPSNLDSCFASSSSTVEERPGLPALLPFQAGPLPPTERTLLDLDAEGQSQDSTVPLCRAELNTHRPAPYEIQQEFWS

[10] = molecular target: Serine/threonine-protein kinase SIK1 (Homo sapiens) (UniProt P57059); assay: Inhibition of SIK1 (unknown origin) assessed as residual activity at 1 uM relative to control
[11] = molecular target: Serine/threonine-protein kinase SIK2 (Homo sapiens) (UniProt Q9H0K1); assay: Inhibition of SIK2 (unknown origin) assessed as residual activity at 1 uM relative to control
[12] = tested on: ALK tyrosine kinase receptor (Homo sapiens), Q9UM73 [F1174L]; assay: Inhibition of ALK F1174L mutant (unknown origin) assessed as residual activity at 1 uM relative to control
[13] = tested on: NPM/ALK (Nucleophosmin/ALK tyrosine kinase receptor) (Homo sapiens), Q9UM73+P06748 [F1174L]; assay: Inhibition of ALK F1174L mutant (unknown origin)/NPM1 (unknown origin) assessed as residual activity at 1 uM relative to control; assay type: protein assay
[14] = tested on: ALK tyrosine kinase receptor (Homo sapiens), Q9UM73 [F1174S]; assay: Inhibition of ALK F1174S mutant (unknown origin) assessed as residual activity at 1 uM relative to control
[15] = tested on: ALK tyrosine kinase receptor (Homo sapiens), Q9UM73 [L1196M]; assay: Inhibition of ALK L1196M mutant (unknown origin) assessed as residual activity at 1 uM relative to control
[16] = tested on: ALK tyrosine kinase receptor (Homo sapiens), Q9UM73 [S1206R]; assay: Inhibition of ALK S1206R mutant (unknown origin) assessed as residual activity at 1 uM relative to control
[17] = molecular target: ALK-KIF5B (Homo sapiens) (UniProt Q9UM73+P33176); assay: Inhibition of ALK-KIF5B (unknown origin) assessed as residual activity at 1 uM relative to control; assay type: protein assay
[18] = molecular target: ALK-KLC1 (Homo sapiens) (UniProt Q9UM73+Q07866); assay: Inhibition of ALK-KLC1 (unknown origin) assessed as residual activity at 1 uM relative to control; assay type: protein assay
[19] = molecular target: NPM/ALK (Nucleophosmin/ALK tyrosine kinase receptor) (Homo sapiens) (UniProt Q9UM73+P06748); assay: Inhibition of ALK-NPM1 (unknown origin) assessed as residual activity at 1 uM relative to control; assay type: protein assay
[20] = molecular target: ALK-TPM1 (Homo sapiens) (UniProt Q9UM73+P09493); assay: Inhibition of ALK-TPM1 (unknown origin) assessed as residual activity at 1 uM relative to control; assay type: protein assay
[21] = tested on: MCF7; assay: Antiproliferative activity against human MCF7 cells assessed inhibition of cell growth incubated for 72 hrs by CCK-8 assay; assay type: functional, cell-based; conditions: MCF7, 72 h
[22] = tested on: MV4-11; assay: Antiproliferative activity against human MV4-11 cells assessed inhibition of cell growth incubated for 72 hrs by CCK-8 assay; assay type: functional, cell-based; conditions: MV4-11, 72 h
[23] = tested on: HT-29; assay: Antiproliferative activity against human HT-29 cells assessed inhibition of cell growth incubated for 72 hrs by CCK-8 assay; assay type: functional, cell-based; conditions: HT-29, 72 h
[24] = Metabolic stability in human liver microsome assessed as parent compound remaining preincubated for 10 mins followed by NADPH addition and measured immediately by LC-MS/MS analysis; assay type: ADME; conditions: liver microsomes, read-out: Stability
[25] = Metabolic stability in human liver microsome assessed as parent compound remaining preincubated for 10 mins followed by NADPH addition and measured at 5 mins by LC-MS/MS analysis; assay type: ADME; conditions: liver microsomes, time 15 min, read-out: Stability
[26] = Metabolic stability in human liver microsome assessed as parent compound remaining preincubated for 10 mins followed by NADPH addition and measured at 30 mins by LC-MS/MS analysis; assay type: ADME; conditions: liver microsomes, time 40 min, read-out: Stability
[27] = Metabolic stability in human liver microsome assessed as half life preincubated for 10 mins followed by NADPH addition and measured upto 60 mins by LC-MS/MS analysis; assay type: ADME; conditions: liver microsomes, time < 70 min
[28] = Metabolic stability in human microsome assessed as intrinsic clearance preincubated for 10 mins followed by NADPH addition and measured upto 60 mins by LC-MS/MS analysis; assay type: ADME; conditions: microsomes, time < 70 min
[29] = C0 in Sprague-Dawley rat at 2 mg/kg, iv measured upto 24 hrs by LC-MS/MS analysis; assay type: ADME, organism-based; conditions: in vivo
[30] = Cmax in Sprague-Dawley rat at 2 mg/kg, iv measured upto 24 hrs by LC-MS/MS analysis; assay type: ADME, organism-based; parameters: time < 24 hrs, dose 2 mg/kg, route iv; conditions: in vivo
[31] = Half life in Sprague-Dawley rat at 10 mg/kg, po measured upto 24 hrs by LC-MS/MS analysis; assay type: ADME, organism-based; conditions: in vivo
[32] = Tmax in Sprague-Dawley rat at 10 mg/kg, po measured upto 24 hrs by LC-MS/MS analysis; assay type: ADME, organism-based; conditions: in vivo
[33] = MRT (0 to infinity) in Sprague-Dawley rat at 2 mg/kg, iv measured upto 24 hrs by LC-MS/MS analysis; assay type: ADME, organism-based; conditions: in vivo
[34] = Clearance in Sprague-Dawley rat at 2 mg/kg, iv measured upto 24 hrs by LC-MS/MS analysis; assay type: ADME, organism-based; conditions: in vivo
[35] = Volume of distribution at steady state in Sprague-Dawley rat at 2 mg/kg, iv measured upto 24 hrs by LC-MS/MS analysis; assay type: ADME, organism-based; conditions: in vivo, read-out: Vdss
[36] = Toxicity in BALB/c nude mouse xenografted with human MDA-MB-468 cells assessed as change in body weight at 30 mg/kg, iv administered once daily for 21 days […]; assay type: organism-based; conditions: in vivo, 504 h, time 21 day

Sequence of NUAK family SNF1-like kinase 1 (Homo sapiens) (O60285 whole entry): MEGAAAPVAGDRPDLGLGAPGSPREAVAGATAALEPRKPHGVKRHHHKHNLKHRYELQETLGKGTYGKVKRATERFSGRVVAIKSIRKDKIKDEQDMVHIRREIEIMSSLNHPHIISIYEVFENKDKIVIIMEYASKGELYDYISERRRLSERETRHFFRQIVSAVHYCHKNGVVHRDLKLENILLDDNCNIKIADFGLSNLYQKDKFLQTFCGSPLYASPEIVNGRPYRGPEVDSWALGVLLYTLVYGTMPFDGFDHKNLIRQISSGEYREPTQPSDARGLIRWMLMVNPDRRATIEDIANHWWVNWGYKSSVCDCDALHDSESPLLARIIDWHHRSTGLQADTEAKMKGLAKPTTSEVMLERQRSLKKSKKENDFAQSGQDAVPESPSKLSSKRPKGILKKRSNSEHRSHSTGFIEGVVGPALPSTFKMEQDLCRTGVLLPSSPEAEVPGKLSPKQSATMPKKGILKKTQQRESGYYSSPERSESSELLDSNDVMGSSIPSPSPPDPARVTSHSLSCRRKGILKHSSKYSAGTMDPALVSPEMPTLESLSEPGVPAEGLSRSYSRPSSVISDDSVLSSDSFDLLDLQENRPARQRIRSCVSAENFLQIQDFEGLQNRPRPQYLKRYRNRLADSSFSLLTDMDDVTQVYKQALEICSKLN

In the case of `CCc1cccc(CC)c1N1CCn2cc(-c3nc(Nc4ccc(N5CCN(C(C)=O)CC5)cc4OC)nc4[nH]ncc34)cc2C1=O`, the Activity [1] is reported as less than 10%, the Activity [2] is reported as less than 10% and the Activity [3] is reported as less than 10%. It also gave an Activity [4] of less than 10%, an Activity [5] of less than 10% and an Activity [6] of less than 10%. The Activity [7] was less than 10%, the Activity [8] was less than 10% and the Activity [9] was less than 10%. For the same compound, the Activity [10] was less than 10%, the Activity [11] was less than 10% and the Activity [12] was less than 10%. The Activity [13] was less than 10%, the Activity [14] was less than 10% and the Activity [15] was less than 10%. For the same compound, the Activity [16] was less than 10%, the Activity [17] was less than 10% and the Activity [18] was less than 10%. It also gave an Activity [19] of less than 10%, an Activity [20] of less than 10% and an IC50 [21] greater than 10 µM. It also gave an IC50 [22] of 0.823 µM, an IC50 [23] greater than 10 µM and a remaining at 0 min [24] of 100%. It also gave a remaining at 5 min [25] of 82.7%, a remaining at 0.5 h [26] of 48.7% and a half-life [27] of 35.2 min. It also gave a microsomal CLint [28] of 39.4 µL/min/mg, a C0 at 24 h [29] of 5240 ng/mL and a Cmax [30] of 2920 ng/mL. For the same compound, the half-life [31] was 63 min, the Tmax [32] was 20 min and the MRT inf [33] was 21.2 min. For the same compound, the clearance [34] was 32 mL/min/kg, the Vd [35] was 0.672 L/kg and the Activity [36] was “Non-Toxic”.
